Test results reported in patent US20240108634A1, “COMPOSITIONS AND METHODS FOR INHIBITING YAP” (The United States Government as represented by the …, priority 2021, published 2024).

Target: T1, YAP association with TEAD1-4, SMAD7, p73, FOS, TBXS (Homo sapiens, UniProt P46937)
T1 construct: expressed in transfected cells
Experiment: HA-YAP1 immunoprecipitation from LN229 cells, immunoblot for TEAD1-4 and other transcription factors
Assay type: cell-based
Settings: LN229 cells expressing HA-YAP, 18 h
Procedure: Levels of total YAP were determined via ELISA. […] Immunoprecipitates were immunoblotted for the indicated proteins. […] Cells were treated with the indicated concentrations of inhibitor for 18 h and mRNA extracted for real time RT-PCR analyses. Measurements were performed in quadruplicate and means and+S.D. are shown. […] Cells were treated with (+) or without (−) NSC682769 (100 nM, 18 h) and harvested and separated into cytoplasmic and nuclear cellular fractions. Cytoplasmic versus nuclear material was subsequently immunoblotted for the indicated proteins. […] Values in top right corner of panels correspond to the percentage of nuclear localized YAP. […]
Protein and mRNA analyses, immunoprecipitation, in vitro bead-coupled inhibitor binding assays and HPLC analyses. […] Antigen-antibody complexes were detected using appropriate horseradish peroxidase-conjugated secondary antibodies (GE Healthcare) and enhanced chemiluminescence (Amersham ECL Prime). […] For quantitative RT-PCR, extraction of RNA was performed using Trizol® (Life Technologies). Total RNA was then quantified and integrity assessed using an Agilent 2100 Bioanalyzer (Agilent Technology). […] SYBR® Green quantitative PCR (Millipore Sigma) was performed in triplicate in 96-well optical plates on an ABI Prism 7000 Sequence Detection System (Life Technologies) according to the manufacturer's instructions. […]

T1 sequence (P46937 whole entry): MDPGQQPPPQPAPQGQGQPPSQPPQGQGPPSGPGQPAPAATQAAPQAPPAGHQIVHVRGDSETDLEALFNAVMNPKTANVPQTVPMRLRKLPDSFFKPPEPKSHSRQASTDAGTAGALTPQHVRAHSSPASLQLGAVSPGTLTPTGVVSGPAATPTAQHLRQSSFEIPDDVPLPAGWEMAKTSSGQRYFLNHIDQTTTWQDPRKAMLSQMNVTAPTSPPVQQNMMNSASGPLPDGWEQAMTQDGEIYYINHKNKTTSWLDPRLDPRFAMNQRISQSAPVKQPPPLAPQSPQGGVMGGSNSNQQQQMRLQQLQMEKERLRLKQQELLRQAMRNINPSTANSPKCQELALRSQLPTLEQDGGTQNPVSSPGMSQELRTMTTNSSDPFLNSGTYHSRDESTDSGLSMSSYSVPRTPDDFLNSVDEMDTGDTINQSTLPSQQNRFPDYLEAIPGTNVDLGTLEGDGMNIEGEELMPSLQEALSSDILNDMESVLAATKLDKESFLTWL

In the case of `COc1ccc(-c2cc(-c3ccccc3)nc3c2CC(=O)Nc2ccccc2-3)cc1OC` [NSC682769], the “Binding of TEAD1-4 to YAP” value is reported as “inhibited the binding of the four TEAD members to YAP” and the “SMAD7, p73, FOS or TBXS association with YAP” value is reported as “no appreciable effects”.
